Experimental data: patent US7064207B2, “Androgen receptor antagonists” (Warner Lambert Company LLC, priority 2003, dated 2006)
Like-named read-outs stand apart in the source and are kept apart here.

Molecular target: T1, androgen receptor (Homo sapiens, UniProt P10275)
T1 sequence (P10275 1-920 Q868H): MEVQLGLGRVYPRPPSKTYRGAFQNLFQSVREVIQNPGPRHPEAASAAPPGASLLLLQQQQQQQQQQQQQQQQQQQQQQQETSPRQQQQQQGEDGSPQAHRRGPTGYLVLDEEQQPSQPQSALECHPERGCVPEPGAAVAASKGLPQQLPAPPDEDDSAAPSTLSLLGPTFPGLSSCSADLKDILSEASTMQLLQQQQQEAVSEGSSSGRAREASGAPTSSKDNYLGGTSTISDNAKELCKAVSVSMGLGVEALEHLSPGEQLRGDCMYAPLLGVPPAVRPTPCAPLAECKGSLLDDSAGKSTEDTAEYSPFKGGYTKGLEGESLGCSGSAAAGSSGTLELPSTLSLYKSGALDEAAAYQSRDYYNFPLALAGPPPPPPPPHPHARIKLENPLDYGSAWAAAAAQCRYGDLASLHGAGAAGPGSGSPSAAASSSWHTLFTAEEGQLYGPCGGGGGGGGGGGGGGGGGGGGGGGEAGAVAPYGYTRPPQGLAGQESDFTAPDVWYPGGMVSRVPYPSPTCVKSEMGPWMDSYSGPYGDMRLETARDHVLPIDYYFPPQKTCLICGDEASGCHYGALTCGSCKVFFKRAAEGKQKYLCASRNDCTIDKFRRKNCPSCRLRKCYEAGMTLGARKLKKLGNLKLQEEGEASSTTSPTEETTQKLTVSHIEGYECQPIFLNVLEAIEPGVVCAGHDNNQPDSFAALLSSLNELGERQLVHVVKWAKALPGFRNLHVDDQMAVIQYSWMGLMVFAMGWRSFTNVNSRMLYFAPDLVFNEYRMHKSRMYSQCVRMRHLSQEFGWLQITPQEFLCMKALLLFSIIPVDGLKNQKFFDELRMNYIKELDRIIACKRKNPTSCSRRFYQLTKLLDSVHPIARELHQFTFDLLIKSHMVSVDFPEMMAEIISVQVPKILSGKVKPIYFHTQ
Assay: AR Antagonist Cell Assay (MMTV-luciferase reporter, inhibition of DHT induction)
Type: cell-based
Experimental: The compounds ability to antagonize the effects of androgen on the androgen receptor were determined in the protocol described immediately below.
Experimental Procedure for AR Antagonist Cell Assay
Cell line: MDA-MB453-MMTV clone 54–19. This cell line is a stable transfected cell line with MDA-MB453 cell background (human breast tumor cell expressing high level of androgen receptor). A MMTV minimal promoter containing ARE was first cloned in front of a firefly luciferase reporter gene. Then the cascade was cloned into transfection vector pUV120puro. Electroporation method was used for transfecting MDA-MB-453 cell. Puromycin resistant stable cell line was selected. Cell Culture Media and Reagents:
Culture medium: DMEM (high glucose, Gibco cat #: 11960-044), 10% FBS, and 1% L-glutamine
Plating medium: DMEM (phenol red free), 10% charcoal treated HyClone serum, 1% L-glutamine
Assay medium: DMEM (phenol red free), 1% charcoal treated HyClone serum, 1% L-glutamine, and 1% penicillin/streptomycin
3× luciferase buffer: 2% beta-mercaptoethanol, 0.6% ATP, 0.0135% luciferine in cell lysis buffer
• 1. Cells are maintained in culture medium, splitting cells when they reach 80–90% confluence • 2. To test compounds, 10,000 cells/well are plated to opaque 96 cell culture plate in 100 ul/well plating medium, culture for overnight at 37° C. in cell culture incubator • 3. Carefully remove plating medium, then add 80 ul/well of pre-warmed assay medium, add 10 ul/well testing compound (final concentration at 10 uM or 1 uM), incubate at 37° C. for 30 minutes • 4. Add 10 ul/well freshly prepared DHT (final concentration at 100 pM) to each well, incubate at 37° C. for 17 hr (overnight) • 5. Add 50 ul/well 3× luciferase buffer, incubate at room temperature for 5 minutes, then count on Luminometer The fold induction over background by 100 pM DHT in the absence of testing compounds is standardized as 100% and experimental result is expressed as percentage of inhibition by testing compounds.

[1] = MDA-MB453-MMTV clone 54-19 cells, 100 pM DHT, 17 hr, luciferase, read-out: Cell IC50

SMILES | IC50 (per procedure of Example 57, read-out: IC50) | IC50 [1]
O=c1cc(C(F)(F)F)c2cc(S(=O)(=O)N3CCCCC3)ccc2[nH]1 [Example 2, 6-(Piperidine-1-sulfonyl)-4-trifluoromethyl-1H-quinolin-2-one] | 181 nM | –
CCOC(=O)C1CCN(S(=O)(=O)c2ccc3c(c2)c(C(F)(F)F)cc(=O)n3C)CC1 [Example 3, 1-(1-Methyl-2-oxo-4-trifluoromethyl-1,2-dihydroquinoline-6-sulfonyl)piperidine-4-carboxylic acid ethyl ester] | – | > 10000 nM
Cn1c(=O)cc(C(F)(F)F)c2cc(S(=O)(=O)N3Cc4ccccc4C3)ccc21 [Example 4, 6-(1,3-Dihydroisoindole-2-sulfonyl)-1-methyl-4-trifluoromethyl-1H-quinolin-2-one] | – | > 10000 nM
CCN1CCN(S(=O)(=O)c2ccc3c(c2)c(C(F)(F)F)cc(=O)n3C)CC1 [Example 5, 6-(4-Ethylpiperazine-1-sulfonyl)-1-methyl-4-trifluoromethyl-1H-quinolin-2-one] | – | > 10000 nM
Cn1c(=O)cc(C(F)(F)F)c2cc(S(=O)(=O)N3CCN(CCOCCO)CC3)ccc21 [Example 6, 6-{4-[2-(2-Hydroxyethoxy)-ethyl]piperazine-1-sulfonyl}-1-methyl-4-trifluoromethyl-1H-quinolin-2-one] | – | > 10000 nM
Cn1c(=O)cc(C(F)(F)F)c2cc(S(=O)(=O)N3CCSC3)ccc21 [Example 7, 1-Methyl-6-(thiazolidine-3-sulfonyl)-4-trifluoromethyl-1H-quinolin-2-one] | – | > 10000 nM
Cn1c(=O)cc(C(F)(F)F)c2cc(S(=O)(=O)N3CCCC4CCCCC43)ccc21 (stereo not drawn) [Example 8, 1-Methyl-6-(octahydro-quinoline-1-sulfonyl)-4-trifluoromethyl-1H-quinolin-2-one] | – | > 10000 nM
Cn1c(=O)cc(C(F)(F)F)c2cc(S(=O)(=O)N3CCCCCC3)ccc21 [Example 9, 6-(Azepane-1-sulfonyl)-1-methyl-4-trifluoromethyl-1H-quinolin-2-one] | – | > 10000 nM
CC1CN(S(=O)(=O)c2ccc3c(c2)c(C(F)(F)F)cc(=O)n3C)CC(C)O1 (stereo not drawn) [Example 10, 6-(2,6Dimethylmorpholine-4-sulfonly)-1-methyl-4-trifluoromethyl-1H-quinolin-2-one] | – | > 10000 nM
Cn1c(=O)cc(C(F)(F)F)c2cc(S(=O)(=O)N3CCCc4ccccc43)ccc21 [Example 11, 6-(3,4-Dihydro-2H-quinoline-1-sulfonyl)-1-methyl-4-trifluoromethyl-1H-quinolin-2-one] | – | > 10000 nM
O=c1cc(C(F)(F)F)c2cc(S(=O)(=O)N3CCCCCCC3)ccc2[nH]1 [Example 12, 6-(Azocane-1-sulfonyl)-4-trifluoromethyl-1H-quinolin-one] | – | 1230 nM
O=c1cc(C(F)(F)F)c2cc(S(=O)(=O)N3CCC(N4CCCC4)CC3)ccc2[nH]1 [Example 13, 6-(4-Pyrrolidin-1-ylpiperidine-1-sulfonyl)-4-trifluoromethyl-1H-quinolin-2-one] | – | > 10000 nM
CCOC(=O)C1CCN(S(=O)(=O)c2ccc3[nH]c(=O)cc(C(F)(F)F)c3c2)CC1 [Example 15, 1-(2-Oxo-4-trifluoromethyl-1,2-dihydroquinoline-6-sulfonyl)piperidine-4-carboxylic acid ethylester] | – | 1260 nM
O=c1cc(C(F)(F)F)c2cc(S(=O)(=O)N3CCC(O)(c4cccs4)CC3)ccc2[nH]1 [Example 16, 6-(4-Hydroxy-4-thiophen-2-ylpiperidine-1-sulfonyl)-4-trifluoromethyl-1H-quinolin-2-one] | – | 640 nM
O=c1cc(C(F)(F)F)c2cc(S(=O)(=O)N3CCN(Cc4ccco4)CC3)ccc2[nH]1 [Example 17, 6-(4-Furan-2-ylmethylpiperazine-1-sulfonyl)-4-trifluoromethyl-1H-quinolin-2-one] | – | 2960 nM
O=c1cc(C(F)(F)F)c2cc(S(=O)(=O)N3Cc4ccccc4C3)ccc2[nH]1 [Example 18, 6-(1,3-Dihydroisoindole-2-sulfonyl)-4-trifluoromethyl-1H-quinolin-2-one] | – | 490 nM
COC(=O)[C@@H]1CCCN1S(=O)(=O)c1ccc2[nH]c(=O)cc(C(F)(F)F)c2c1 [Example 19, 1-(2-Oxo-4-trifluoromethyl-1,2-dihydroquinoline-6-sulfonyl)pyrrolidine-2-carboxylic acid methylester] | – | 2240 nM
O=c1cc(C(F)(F)F)c2cc(S(=O)(=O)N3CCN(CCOCCO)CC3)ccc2[nH]1 [Example 20, 6-{4-[2-(2-Hydroxyethoxy)-ethyl]piperazine-1-sulfonyl}-4-trifluoromethyl-1H-quinolin-2-one] | – | > 10000 nM
COc1cc2c(cc1OC)CN(S(=O)(=O)c1ccc3[nH]c(=O)cc(C(F)(F)F)c3c1)CC2 [Example 21, 6-(6,7-Dimethoxy-3,4-dihydro-1H-isoquinoline-2-sulfonyl)-4-trifluoromethyl-1H-quinolin-2-one] | – | 480 nM
O=c1cc(C(F)(F)F)c2cc(S(=O)(=O)N3CCC4(CC3)OCCO4)ccc2[nH]1 [Example 22, 6-(1,4-Dioxa-8-azaspiro[4.5]decane-8-sulfonyl)-4-trifluoromethyl-1H-quinolin-2-one] | – | 1900 nM
O=C(CN1CCN(S(=O)(=O)c2ccc3[nH]c(=O)cc(C(F)(F)F)c3c2)CC1)N1CCCC1 [Example 23, 6-[4-(2-Oxo-2-pyrrolidin-1-ylethyl)piperazine-1-sulfonyl]-4-trifluoromethyl-1H-quinolin-2-one] | – | > 10000 nM
CC1CCN(S(=O)(=O)c2ccc3[nH]c(=O)cc(C(F)(F)F)c3c2)CC1 [Example 24, 6-(4-Methylpiperidine-1-sulfonyl)-4-trifluoromethyl-1H-quinolin-2-one] | – | 960 nM
O=c1cc(C(F)(F)F)c2cc(S(=O)(=O)N3CCCC(CO)C3)ccc2[nH]1 (stereo not drawn) [Example 25, 6-(3-Hydroxymethylpiperidine-1-sulfonyl)-4-trifluoromethyl-1H-quinolin-2-one] | – | 3540 nM
O=c1cc(C(F)(F)F)c2cc(S(=O)(=O)N3CCSC3)ccc2[nH]1 [Example 26, 6-(Thiazolidine-3-sulfonyl)-4-trifluoromethyl-1H-quinolin-2-one] | – | 160 nM
O=c1cc(C(F)(F)F)c2cc(S(=O)(=O)N3CCN(c4ccncc4)CC3)ccc2[nH]1 [Example 27, 6-(4-Pyridin-4-ylpiperazine-1-sulfonyl)-4-trifluoromethyl-1H-quinolin-2-one] | – | > 10000 nM
O=c1cc(C(F)(F)F)c2cc(S(=O)(=O)N3CCN(c4ccccc4)CC3)ccc2[nH]1 [Example 28, 6-(4-Phenylpiperazine-1-sulfonyl)-4-trifluoromethyl-1H-quinolin-2-one] | – | > 10000 nM
O=c1cc(C(F)(F)F)c2cc(S(=O)(=O)N3CCCCC3CCO)ccc2[nH]1 (stereo not drawn) [Example 29, 6-[2-(2-Hydroxyethyl)-piperidine-1-sulfonyl]-4-trifluoromethyl-1H-quinolin-2-one] | – | > 10000 nM
O=c1cc(C(F)(F)F)c2cc(S(=O)(=O)N3CCCC3CO)ccc2[nH]1 (stereo not drawn) [Example 30, 6-(2-Hydroxymethyl-pyrrolidine-1-sulfonyl)-4-trifluoromethyl-1H-quinolin-2-one] | – | 2170 nM
O=c1cc(C(F)(F)F)c2cc(S(=O)(=O)N3CCCC4CCCCC43)ccc2[nH]1 (stereo not drawn) [Example 31, 6-(Octahydroquinoline-1-sulfonyl)-4-trifluoromethyl-1H-quinolin-2-one] | – | 440 nM
O=c1cc(C(F)(F)F)c2cc(S(=O)(=O)N3CCN(CCc4cccs4)CC3)ccc2[nH]1 [Example 32, 6-[4-(2-Thiophen-2-ylethyl)piperazine-1-sulfonyl]-4-trifluoromethyl-1H-quinolin-2-one] | – | 2660 nM
